According to patent US20100197679A1, “COMPOUNDS” (Glaxo Group Limited, priority 2007, published 2010):
Counter-ions that a name gives are not always drawn. Like-named read-outs stand apart in the source and are kept apart here.

Key:
[1] = system: Mycobacterium tuberculosis H37Rv; test: Mycobacterium tuberculosis H37Rv Inhibition Assay (MIC, resazurin fluorescence); format: cell-based; conditions: ATCC 25618 / H37Rv
[2] = Whole-cell antimicrobial activity assay, broth microdilution (CLSI M7-A7), MIC; format: cell-based; conditions: two-fold dilutions 0.016 to 16 mcg/mL, at least one of the listed Gram-positive/Gram-negative organisms, at least one exemplified salt or free base form, read-out: MIC against at least one of the organisms listed
Protocol: Whole-cell antimicrobial activity was determined by broth microdilution using the Clinical Laboratory Standards Institute (CLSI) recommended procedure, Document M7-A7, “Methods for Dilution Susceptibility Tests for Bacteria that Grow Aerobically”. The compounds were tested in serial two-fold dilutions ranging from 0.016 to 16 mcg/mL.
The minimum inhibitory concentration (MIC) was determined as the lowest concentration of compound that inhibited visible growth. A mirror reader was used to assist in determining the MIC endpoint.
Compounds were evaluated against Gram-positive organisms, including Staphylococcus aureus, Streptococcus pneumoniae, Streptococcus pyogenes, Enterococcus faecalis and Enterococcus faecium.
In addition, compounds were evaluated against Gram-negative organisms including Haemophilus influenzae, Moraxella catarrhalis, Escherichia coli, Pseudomonas aeruginosa, Proteus mirabilis, Enterobacter cloacae, Enterobacter aerogenes, Klebsiella pneumoniae, Acinetobacter baumanii and Stenotrophomonas maltophilia.

[3] = H37Rv strain (ATCC25618), Middlebrook 7H9+ADC, six days at 37° C., resazurin read after 48 hours, read-out: MIC value

SMILES	MIC [1, 3]	further results
COc1ccc2ncc(=O)n(-c3cnc4c(c3)C[C@@H](O)[C@@H](NCc3cc5c(nn3)OCCO5)C4)c2n1 (relative stereo) [Example 13, Cis-4-{7-[(6,7-Dihydro[1,4]dioxino[2,3-c]pyridazin-3-ylmethyl)amino]-6-hydroxy-5,6,7,8-tetrahydro-3-quinolinyl}-6-(methyloxy)pyrido[2,3-b]pyrazin-3(4H)-one dihydrochloride]	≤ 1.1 µg/mL	–
COc1ccc2ncc(=O)n(-c3cnc4c(c3)CCC(NCc3cc5c(nn3)OCCO5)C4)c2n1 (stereo not drawn) [Example 7, 4-{7-[(6,7-Dihydro[1,4]dioxino[2,3-c]pyridazin-3-ylmethyl)amino]-5,6,7,8-tetrahydro-3-quinolinyl}-6-(methyloxy)pyrido[2,3-b]pyrazin-3(4H)-one hydrochloride]	≤ 1.1 µg/mL	–
COc1ccc2ncc(=O)n(-c3cnc4c(c3)C[C@@H](O)[C@@H](NCc3cc5c(cn3)OCCO5)C4)c2n1 (relative stereo) [Example 14, Cis-4-{7-[(2,3-Dihydro[1,4]dioxino[2,3-c]pyridin-7-ylmethyl)amino]-6-hydroxy-5,6,7,8-tetrahydro-3-quinolinyl}-6-(methyloxy)pyrido[2,3-b]pyrazin-3(4H)-one]	≤ 1.1 µg/mL	–
COc1ccc2ncc(=O)n(-c3cnc4c(c3)C[C@@H](O)[C@H](NCc3cc5c(cn3)OCCO5)C4)c2n1 (racemic) [Example 18, 4-{(6R/S,7R/S)-7-[(2,3-Dihydro[1,4]dioxino[2,3-c]pyridin-7-ylmethyl)amino]-6-hydroxy-5,6,7,8-tetrahydro-3-quinolinyl}-6-(methyloxy)pyrido[2,3-b]pyrazin-3(4H)-one dihydrochloride]	–	MIC ([1]; read-out: MIC value, H37Rv strain (ATCC25618), Middlebrook 7H9+ADC, six days at 37° C., resazurin read after 48 hours): ≤ 1.1 µg/mL
COc1ccc2ncc(=O)n(-c3cnc4c(c3)CCC(NCc3cc5c(cn3)OCCO5)C4)c2n1 (stereo not drawn) [Example 8, 4-{7-[(2,3-Dihydro[1,4]dioxino[2,3-c]pyridin-7-ylmethyl)amino]-5,6,7,8-tetrahydro-3-quinolinyl}-6-(methyloxy)pyrido[2,3-b]pyrazin-3(4H)-one hydrochloride]	≤ 1.1 µg/mL	–
COc1ccc2ncc(=O)n(-c3cnc4c(c3)OCC(NCc3cc5c(cn3)OCCO5)C4)c2n1 (stereo not drawn) [Example 17, 4-{3-[(2,3-Dihydro[1,4]dioxino[2,3-c]pyridin-7-ylmethyl)amino]-3,4-dihydro-2H-pyrano[3,2-b]pyridin-7-yl}-6-(methyloxy)pyrido[2,3-b]pyrazin-3(4H)-one fumarate]	–	MIC [2]: 16 µg/mL
